Test system: U87MG cells
Experiment: Cellular assay, inhibition of 2-HG production in U87MG cells
Format: cell-based
Conditions: Homo sapiens, U-87 MG, 48 h
Summary of the method: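 HT1080 or U87MG cells (U87MG kept with 500 ug/mL G418) seeded at 5000 cells/well and treated with compound at 0.2% final DMSO. Incubated 48 h at 37 °C. 2-HG inhibition determined by LC-MS. Viability read by CellTiter-Glo luminescence at 72 h post-dose.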

Structure (SMILES): CC(C)(O)c1cc(F)cc(N(C(=O)[C@@H]2CCC(=O)N2c2cc(C#N)ccn2)[C@H](C(=O)NC2CC(F)(F)C2)c2ccccc2Cl)c1 [Compound 150, (S)—N—((S)-1-(2-Chlorophenyl)-2-(3,3-difluorocyclobutylamino)-2-oxoethyl)-1-(4-cyanopyridin-2-yl)-N-(3-fluoro-5-(2-hydroxypropan-2-yl)phenyl)-5-oxopyrrolidine-2-carboxamide]
- IC50: < 100 nM

Structure (SMILES): N#Cc1ccnc(N2C(=O)CC[C@H]2C(=O)N(c2cc(F)cc(F)c2)C(C(=O)NC2CC(F)(F)C2)c2cccc(Cl)c2Cl)c1 (stereo partly drawn) [Compound 195, (2S)-1-(4-Cyanopyridin-2-yl)-N-(1-(2,3-dichlorophenyl)-2-(3,3-difluoro-cyclobutylamino)-2-oxoethyl)-N-(3,5-difluorophenyl)-5-oxopyrrolidine-2-carboxamide]
- IC50: < 100 nM

Structure (SMILES): N#Cc1cc(C#N)cc(N(C(=O)[C@@H]2CCC(=O)N2c2cc(C#N)ccn2)[C@H](C(=O)NC2CC(F)(F)C2)c2ccccc2Cl)c1 [Compound 153, (S)—N—((S)-1-(2-Chlorophenyl)-2-((3,3-difluorocyclobutyl)amino)-2-oxoethyl)-1-(4-cyanopyridin-2-yl)-N-(3,5-dicyanophenyl)-5-oxopyrrolidine-2-carboxamide]
- IC50: < 100 nM

Structure (SMILES): N#Cc1ccnc(N2C(=O)CC[C@H]2C(=O)N(c2cncc(F)c2)[C@H](C(=O)NC2CC(F)(F)C2)c2ccccc2Cl)c1 [Compound 176, (S)—N—((S)-1-(2-Chlorophenyl)-2-(3,3-difluorocyclobutylamino)-2-oxoethyl)-1-(4-cyanopyridin-2-yl)-N-(5-fluoropyridin-3-yl)-5-oxopyrrolidine-2-carboxamide]
- IC50: < 100 nM

Structure (SMILES): N#Cc1ccnc(N2C(=O)CC[C@H]2C(=O)N(c2cccc(F)c2)[C@H](C(=O)NC2CCC(F)(F)CC2)c2ccccc2Cl)c1F [Compound 83, (S)—N—((S)-1-(2-Chlorophenyl)-2-((4,4-difluorocyclohexyl)amino)-2-oxoethyl)-1-(4-cyano-3-fluoropyridin-2-yl)-N-(3-fluorophenyl)-5-oxopyrrolidine-2-carboxamide]
- IC50: < 100 nM

Structure (SMILES): N#Cc1ccnc(N2C(=O)[C@@H](O)C[C@H]2C(=O)N(c2cccc(F)c2)[C@H](C(=O)NC2CCC(F)(F)CC2)c2ccccc2Cl)n1 [Compound 189, (2S,4S)—N—((S)-1-(2-Chlorophenyl)-2-((4,4-difluorocyclohexyl)amino)-2-oxoethyl)-1-(4-cyanopyrimidin-2-yl)-N-(3-fluorophenyl)-4-hydroxy-5-oxopyrrolidine-2-carboxamide]
- IC50: < 100 nM

Structure (SMILES): N#Cc1cc(C#N)cc(N(C(=O)[C@@H]2CCC(=O)N2c2cc(C#N)ccn2)C(C(=O)NC2CC(F)(F)C2)c2ccccc2Cl)c1 (stereo partly drawn) [Compound 191, (2S)—N-(1-(2-Chlorophenyl)-2-((3,3-difluorocyclobutyl)amino)-2-oxoethyl)-1-(4-cyanopyridin-2-yl)-N-(3,5-dicyanophenyl)-5-oxopyrrolidine-2-carboxamide]
- IC50: < 100 nM

Structure (SMILES): CS(=O)(=O)c1cc(F)cc(N(C(=O)[C@@H]2CCC(=O)N2c2cc(C#N)ccn2)C(C(=O)NC2CCC(F)(F)CC2)c2ccccc2Cl)c1 (stereo partly drawn) [Compound 105, (2S)—N-(1-(2-Chlorophenyl)-2-((4,4-difluorocyclohexyl)amino)-2-oxoethyl)-1-(4-cyanopyridin-2-yl)-N-(3-fluoro-5-(methylsulfonyl)phenyl)-5-oxopyrrolidine-2-carboxamide]
- IC50: < 100 nM

Structure (SMILES): N#Cc1ccnc(N2C(=O)CC[C@H]2C(=O)N(c2cccc(OC(F)F)c2)[C@H](C(=O)NC2CC(F)(F)C2)c2ccccc2Cl)c1 (single isomer, unassigned) [Compound 181]
- IC50: < 100 nM

Structure (SMILES): CN(C)S(=O)(=O)c1cccc(N(C(=O)[C@@H]2CCC(=O)N2c2cc(C#N)ccn2)[C@H](C(=O)NC2CC(F)(F)C2)c2ccccc2Cl)c1 [Compound 156, (S)—N—((S)-1-(2-Chlorophenyl)-2-(3,3-difluorocyclobutylamino)-2-oxoethyl)-1-(4-cyanopyridin-2-yl)-N-(3-(N,N-dimethylsulfamoyl)phenyl)-5-oxopyrrolidine-2-carboxamide]
- IC50: < 100 nM

Structure (SMILES): CS(=O)(=O)c1cccc(N(C(=O)[C@@H]2CCC(=O)N2c2nccc(C#N)n2)[C@H](C(=O)NC2CCC(F)(F)CC2)c2ccccc2Cl)c1 [Compound 103, (S)—N—((S)-1-(2C)-2-((4,4-difluorocyclohexyl)amino)-2-oxoethyl)-1-(4-cyanopyrimidin-2-yl)-N-(3-(methylsulfonyl)phenyl)-5-oxopyrrolidine-2-carboxamide]
- IC50: 100 to 500 nM

Structure (SMILES): N#Cc1ccnc(N2C(=O)CC[C@H]2C(=O)N(c2cccc(C3(O)CC3)c2)[C@H](C(=O)NC2CC(F)(F)C2)c2ccccc2Cl)c1 [Compound 140, (S)—N—((S)-1-(2-Chlorophenyl)-2-(3,3-difluorocyclobutylamino)-2-oxoethyl)-1-(4-cyanopyridin-2-yl)-N-(3-(1-hydroxycyclopropyl)phenyl)-5-oxopyrrolidine-2-carboxamide]
- IC50: < 100 nM

Structure (SMILES): N#Cc1ccnc(N2C(=O)CC[C@H]2C(=O)N(c2cccc(C3CC3)c2)[C@H](C(=O)NC2CC(F)(F)C2)c2ccccc2Cl)c1 [Compound 173, (S)—N—((S)-1-(2-Chlorophenyl)-2-((3,3-difluorocyclobutyl)amino)-2-oxoethyl)-1-(4-cyanopyridin-2-yl)-N-(3-cyclopropylphenyl)-5-oxopyrrolidine-2-carboxamide]
- IC50: < 100 nM

Structure (SMILES): N#Cc1cc(F)cc(N(C(=O)[C@@H]2CCC(=O)N2c2cc(C#N)ccn2)[C@H](C(=O)NC2CC(F)(F)C2)c2ccccc2Cl)c1 [Compound 177, (S)—N—((S)-1-(2-Chlorophenyl)-2-(3,3-difluorocyclobutylamino)-2-oxoethyl)-N-(3-cyano-5-fluorophenyl)-1-(4-cyanopyridin-2-yl)-5-oxopyrrolidine-2-carboxamide]
- IC50: < 100 nM

Structure (SMILES): N#Cc1ccnc(N2C(=O)CC[C@H]2C(=O)N(c2cccc(F)c2)[C@H](C(=O)NC2CC(F)(F)C2)c2ccccc2Cl)c1F [Compound 82, (S)—N—((S)-1-(2-Chlorophenyl)-2-((3,3-difluorocyclobutyl)amino)-2-oxoethyl)-1-(4-cyano-3-fluoropyridin-2-yl)-N-(3-fluorophenyl)-5-oxopyrrolidine-2-carboxamide]
- IC50: < 100 nM

Structure (SMILES): N#Cc1ccnc(N2C(=O)CC[C@H]2C(=O)N(c2cccc(F)c2)[C@H](C(=O)NC2CCC(F)(F)CC2)c2ccccc2Cl)c1 [Compound 53]
- IC50: < 100 nM

Structure (SMILES): O=C(NC1CC(F)(F)C1)C(c1ccccc1Cl)N(C(=O)C1CCC(=O)N1c1cnccn1)c1cccc(F)c1 (centres unmarked) [Compound 18]
- IC50: < 100 nM

Structure (SMILES): N#Cc1ccnc(N2C(=O)CCC[C@H]2C(=O)N(c2cccc(F)c2)[C@H](C(=O)NC2CCC(F)(F)CC2)c2ccccc2Cl)c1 [Compound 75, (S)—N—((S)-1-(2-Chlorophenyl)-2-((4,4-difluorocyclohexyl)amino)-2-oxoethyl)-1-(4-cyano-pyridin-2-yl)-N-(3-fluorophenyl)-6-oxopiperidine-2-carboxamide]
- IC50: < 100 nM

Structure (SMILES): N#Cc1cc(F)cc(N(C(=O)[C@@H]2C[C@@H](O)C(=O)N2c2cc(C#N)ccn2)C(C(=O)NC2CC(F)(F)C2)c2ccccc2Cl)c1 (stereo partly drawn) [Compound 169, (2S,4R)—N-(1-(2-Chlorophenyl)-2-(3,3-difluorocyclobutylamino)-2-oxoethyl)-N-(3-cyano-5-fluorophenyl)-1-(4-cyanopyridin-2-yl)-4-hydroxy-5-oxopyrrolidine-2-carboxamide]
- IC50: < 100 nM

Structure (SMILES): CC(C)(C)OC(=O)N1CC(=O)N(c2nccc(C#N)n2)[C@H](C(=O)N(c2cc(F)cc(F)c2)[C@H](C(=O)NC2CC(F)(F)C2)c2ccccc2Cl)C1 [Compound 98, (3S)-tert-butyl 3-((1-(2-chlorophenyl)-2-((3,3-difluorocyclobutyl)amino)-2-oxoethyl)(3,5-difluorophenyl)carbamoyl)-4-(4-cyanopyrimidin-2-yl)-5-oxopiperazine-1-carboxylate]
- IC50: < 100 nM

Structure (SMILES): N#Cc1ccnc(N2C(=O)CC[C@H]2C(=O)N(c2cncc(F)c2)C(C(=O)NC2CC(F)(F)C2)c2ccccc2Cl)c1 (some centres unmarked) [Compound 91]
- IC50: < 100 nM

Structure (SMILES): N#Cc1cccnc1N1C(=O)CC[C@H]1C(=O)N(c1cccc(F)c1)[C@H](C(=O)NC1CC(F)(F)C1)c1ccccc1Cl [Compound 69, (S)—N—((S)-1-(2-Chlorophenyl)-2-((3,3-difluorocyclobutyl)amino)-2-oxoethyl)-1-(3-cyanopyridin-2-yl)-N-(3-fluorophenyl)-5-oxopyrrolidine-2-carboxamide]
- IC50: < 100 nM

Structure (SMILES): N#Cc1ccnc(N2C(=O)[C@H](O)C[C@H]2C(=O)N(c2cccc(F)c2)[C@H](C(=O)NC2CC(F)(F)C2)c2ccccc2Cl)c1 [Compound 113, (2S,4R)—N—((S)-1-(2-Chlorophenyl)-2-(3,3-difluorocyclobutylamino)-2-oxoethyl)-1-(4-cyanopyridin-2-yl)-N-(3-fluorophenyl)-4-hydroxy-5-oxopyrrolidine-2-carboxamide]
- IC50: < 100 nM

Structure (SMILES): N#Cc1ccnc(N2C(=O)CC[C@H]2C(=O)N(c2cc(F)cc(F)c2)[C@H](C(=O)NC2CC(F)(F)C2)c2c(Cl)cccc2Cl)c1 [Compound 199, (S)-1-(4-Cyanopyridin-2-yl)-N—((S)-1-(2,6-dichlorophenyl)-2-((3,3-difluorocyclobutyl)amino)-2-oxoethyl)-N-(3,5-difluorophenyl)-5-oxopyrrolidine-2-carboxamide]
- IC50: < 100 nM

Structure (SMILES): N#Cc1ccnc(N2C(=O)[C@@H](O)C[C@H]2C(=O)N(c2cccc(F)c2)[C@H](C(=O)NC2CC(F)(F)C2)c2ccccc2Cl)c1 [Compound 118, (2S,4S)—N—((S)-1-(2-Chlorophenyl)-2-(3,3-difluorocyclobutylamino)-2-oxoethyl)-1-(4-cyano-pyridin-2-yl)-N-(3-fluorophenyl)-4-hydroxy-5-oxopyrrolidine-2-carboxamide]
- IC50: < 100 nM

Structure (SMILES): N#Cc1cccc(N(C(=O)[C@@H]2CCC(=O)N2c2cc(C#N)ccn2)[C@H](C(=O)NC2CC(F)(F)C2)c2ccccc2Cl)c1 [Compound 128, (S)—N—((S)-1-(2-Chlorophenyl)-2-((3,3-difluorocyclobutyl)amino)-2-oxoethyl)-N-(3-cyano-phenyl)-1-(4-cyanopyridin-2-yl)-5-oxopyrrolidine-2-carboxamide]
- IC50: < 100 nM

Source: US10640534B2 (Agios Pharmaceuticals, Inc., priority 2012, dated 2020)
